# Reference: the supplement of paper PMC4977894
# ± gives the standard deviation of the averaged measurements.
# Assays:
# [1] = system: Homo sapiens (human subject panel, olfactory perception); test: perceived odor familiarity rating (rating 0-100); higher = more familiar
# How it was run: (§1)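 55 healthy human subjects (aged 18–50; six lowest performers excluded) sniffed 1 mL of each molecule diluted in paraffin oil, at high and low concentrations, in randomized order across ten visits of 100 stimuli. Subjects who reported smelling the stimulus rated it on a computerized slider starting at 50, which had to be moved; positions were converted to a 0–100 scale. Familiarity, intensity and pleasantness ratings are averages over subjects.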
# [2] = system: Homo sapiens (human subject panel, olfactory perception); test: perceived odor pleasantness rating (rating 0-100); higher = more pleasant
# How it was run: as §1
# [3] = system: Homo sapiens (human subject panel, olfactory perception); test: perceived odor intensity rating (rating 0-100); higher = stronger perceived smell
# How it was run: as §1
# [4] = odor dilution in paraffin oil: 1/1,000
# [5] = odor dilution in paraffin oil: 1/100,000
# [6] = odor dilution in paraffin oil: 1/10
# [7] = odor dilution in paraffin oil: 1/10,000,000
SMILES,"perceived odor familiarity rating [1, 4]","perceived odor familiarity rating [1, 5]","perceived odor pleasantness rating [2, 4]","perceived odor pleasantness rating [2, 5]","perceived odor intensity rating [3, 4]","perceived odor intensity rating [3, 5]","perceived odor familiarity rating [1, 6]","perceived odor pleasantness rating [2, 6]","perceived odor intensity rating [3, 6]","perceived odor familiarity rating [1, 7]","perceived odor pleasantness rating [2, 7]","perceived odor intensity rating [3, 7]"
Cc1ccc(C(C)C)c(O)c1 [thymol],55.8 ± 32,49.7 ± 29,41.8 ± 27,48.5 ± 24,71.1 ± 23,39.2 ± 30,,,,,,
"C/C=C/C=C/CO [trans,trans-2,4-Hexadien-1-ol]",45.1 ± 32,36.4 ± 30,48 ± 23,49.6 ± 23,45.5 ± 30,14.4 ± 18,,,,,,
"C/C=C/C=C/COC(C)=O [trans,trans-2,4-Hexadienyl acetate (replicate)]",30.6 ± 27,,49.5 ± 25,,23.5 ± 26,,30.4 ± 25,47.6 ± 22,19.1 ± 20,,,
"C/C=C/C=C/COC(C)=O [trans,trans-2,4-Hexadienyl acetate]",35.5 ± 27,,51.3 ± 24,,22 ± 23,,24.8 ± 27,39.4 ± 25,13.9 ± 24,,,
CCC/C=C/COC(C)=O [trans-2-Hexenyl acetate],52.4 ± 30,38.8 ± 26,41.2 ± 30,49 ± 24,64.3 ± 27,38.3 ± 30,,,,,,
CCCCC/C=C/CO [trans-2-Octen-1-ol],46.4 ± 32,31 ± 31,36.5 ± 28,50.8 ± 22,69.6 ± 26,27.6 ± 28,,,,,,
C/C=C/c1ccc(OC)cc1 [trans-Anethole],74 ± 26,40 ± 32,62.1 ± 26,51.3 ± 23,64.3 ± 28,30.8 ± 30,,,,,,
O=C(O)/C=C/c1ccccc1 [trans-Cinnamic acid],46.5 ± 32,,28.4 ± 28,,59.5 ± 30,,51.5 ± 31,52.7 ± 30,72.3 ± 23,,,
CCC(=O)OC/C=C/c1ccccc1 [trans-Cinnamyl propionate],45.5 ± 29,36.7 ± 28,50.8 ± 23,46.9 ± 24,46.3 ± 30,23.7 ± 29,,,,,,
CCCCCCCCCCC=O [undecanal],47.9 ± 32,28.2 ± 25,36.2 ± 26,50 ± 21,68.2 ± 28,20.4 ± 26,,,,,,
CCCCCCCCCCC [undecane],35 ± 29,,53.3 ± 23,,21 ± 26,,41.7 ± 32,32.3 ± 21,56.4 ± 31,,,
CCCCC=O [valeraldehyde],,43.7 ± 26,,43 ± 25,,41.3 ± 30,,,,38.9 ± 28,49.8 ± 26,18.8 ± 22
CCCCC(=O)O [valeric acid],,31.6 ± 29,,24.7 ± 22,,47.2 ± 29,,,,45.2 ± 34,37.5 ± 23,34.9 ± 32
COc1cc(C=O)ccc1O [vanillin],80.7 ± 21,,84 ± 20,,74.4 ± 22,,82.6 ± 18,86.3 ± 15,72.1 ± 23,,,
